Experimental findings from patent US20230380427A1 (priority 2020, published 2023) are described below.

Like-named read-outs stand apart in the source and are kept apart here. Marks after values point to notes of the source that are not given here.

Experiment [1] has as its system F. graminearum. Format: in vivo, Fusarium graminearum. The settings on record: wheat Capo, Lennox, Trappe, Kronjet, ear treated, FHB assessed 21 days after anthesis, versus untreated control.
Experiment [2] has as its system F. graminearum. Format: in vivo, Fusarium graminearum. The settings on record: wheat Trappe, ear treated, versus untreated half of plot.
The test system of experiment [3] is F. graminearum. Format: in vivo, Fusarium graminearum. The settings on record: wheat Capo; versus control.
The test system of a further experiment is Plasmopara viticola. Nature of the experiment: Grapevine leaf disc assay (downy mildew, Peronospora). Format: in vivo. The settings on record: grapevine leaf discs, 5 days at 23° C.; diseased disk area versus control. The procedure: Exemplary tests for reduction of Peronospora symptoms were carried out on grapevine leaf discs as follows. Ten leaf discs were first inoculated with prototypes for 20 min and then treated with a spore suspension (20000 sporangia/ml) of the fungus until zoospores were released from the sporangia. Afterwards, leaf disks were placed on water agar plates and incubated for 5 days at 23° C. (16 h light/8 h darkness). Consequently, disease severity was calculated by measurement of the percentage of diseased disk area. Control treatments were included by either using water or by application of the copper-based, commercially available plant protection product Cuprozin.

Take `[Cl-].[Cl-].[Mg+2]` [Prototype W3, Magnesium chloride]: the results for the “Reduction of Symptoms (Disease incidence %)” value in the experiment with F. graminearum [1] (listed as W3) and in the experiment on F. graminearum [1] (listed as magnesium) were “ns” and “no influence”, respectively. As to Sodium silicium oxide [Prototype W4], the results for the “Reduction of Symptoms (Disease incidence %)” value in the experiment on F. graminearum [1] (listed as Silicium) and with F. graminearum [1] (listed as W4) were “no influence” and “ns”, respectively. For `[Ca+2].[Cl-].[Cl-]` [Prototype W2, Calcium chloride], the “Reduction of Symptoms (Disease incidence %)” value in the experiment on F. graminearum [1] was 29%. Take `O=C([O-])[O-].[Ca+2]` [Prototype W25, Calcium carbonate from natural resources]: the results for the “Reduction of Symptoms (Disease incidence %)” value with F. graminearum [2] (listed as Calcium carbonate) and in the experiment on F. graminearum [2] (listed as W25) were 13% and 13* %, respectively. Take `O=C([O-])[O-].[Ca+2]` [Prototype W24, Calcium carbonate from natural resources]: in the experiment with F. graminearum [3], the “Reduction of Symptoms (%) Disease incidence %” value was “ns”; the “Reduction of Symptoms (%) Disease intensity %” value is “no significant effect and ns”; the “Reduction of Symptoms (%) Disease severity %” value is given as “ns”. With `[Ca+2].[Cl-].[Cl-]` [Prototype G1, Calcium chloride], the “Reduction of Symptoms (Disease Severity %)” value with Plasmopara viticola is on record as 50.9** %.
